From ChEMBL document CHEMBL1145696, “Cytotoxic glycosides from Albizia julibrissin” (J Nat Prod, 1997)

Test system: KB
Assay: Cytotoxicity against human KB cells by MTT assay
Type: functional, cell-based

SMILES | IC50
C=C[C@](C)(CC/C=C(\C)C(=O)O[C@H]1[C@H](O)[C@@H](O)[C@H](O[C@](C)(C=C)CC/C=C(\C)C(=O)O[C@H]2C[C@]3(C(=O)O[C@@H]4O[C@H](CO)[C@@H](O)[C@H](O)[C@H]4O[C@@H]4O[C@@H](C)[C@H](O[C@@H]5O[C@@H](CO)[C@H](O)[C@H]5O)[C@@H](O[C@@H]5O[C@H](CO)[C@@H](O)[C@H](O)[C@H]5O)[C@H]4O)[C@H](O)C[C@]4(C)C(=CC[C@@H]5[C@@]6(C)CC[C@H](O[C@@H]7O[C@H](CO[C@@H]8O[C@H](C)[C@H](O)[C@H](O)[C@H]8O[C@@H]8OC[C@@H](O)[C@H](O)[C@H]8O)[C@@H](O)[C@H](O)[C@H]7O)C(C)(C)[C@@H]6CC[C@]54C)[C@@H]3CC2(C)C)O[C@@H]1C)O[C@@H]1O[C@H](C)[C@@H](O)[C@H](O)[C@H]1O [JULIBROSIDE II] | > 10 µg/mL
C=C[C@](C)(CC/C=C(\C)C(=O)O[C@H]1C[C@]2(C(=O)O[C@@H]3O[C@H](CO)[C@@H](O)[C@H](O)[C@H]3O[C@@H]3O[C@@H](C)[C@H](O[C@@H]4O[C@@H](CO)[C@H](O)[C@H]4O)[C@@H](O[C@@H]4O[C@H](CO)[C@@H](O)[C@H](O)[C@H]4O)[C@H]3O)[C@H](O)C[C@]3(C)C(=CC[C@@H]4[C@@]5(C)CC[C@H](O[C@@H]6O[C@H](CO[C@@H]7O[C@H](C)[C@H](O)[C@H](O)[C@H]7O[C@@H]7OC[C@@H](O)[C@H](O)[C@H]7O)[C@@H](O)[C@H](O)[C@H]6O)C(C)(C)[C@@H]5CC[C@]43C)[C@@H]2CC1(C)C)O[C@@H]1O[C@H](C)[C@@H](O)[C@H](O)[C@H]1O [PORSAPOGENIN 9] | 1600 nM
C=C[C@](C)(CC/C=C(\C)C(=O)O[C@H]1C[C@]2(C(=O)O[C@@H]3O[C@H](CO)[C@@H](O)[C@H](O)[C@H]3O[C@@H]3O[C@@H](C)[C@H](O[C@@H]4O[C@@H](CO)[C@H](O)[C@H]4O)[C@@H](O[C@@H]4O[C@H](CO)[C@@H](O)[C@H](O)[C@H]4O)[C@H]3O)CC[C@]3(C)C(=CC[C@@H]4[C@@]5(C)CC[C@H](O[C@@H]6O[C@H](CO[C@@H]7O[C@H](C)[C@H](O)[C@H](O)[C@H]7O[C@@H]7OC[C@@H](O)[C@H](O)[C@H]7O)[C@@H](O)[C@H](O)[C@H]6O)C(C)(C)[C@@H]5CC[C@]43C)[C@@H]2CC1(C)C)O[C@@H]1O[C@H](C)[C@@H](O)[C@H](O)[C@H]1O [PROSAPOGENIN 11] | 1600 nM
C[C@H]1O[C@@H](OC[C@H]2O[C@@H](O[C@H]3CC[C@]4(C)[C@H]5CC=C6[C@@H]7CC(C)(C)[C@@H](O)C[C@]7(C(=O)O)[C@H](O)C[C@@]6(C)[C@]5(C)CC[C@H]4C3(C)C)[C@H](O)[C@@H](O)[C@@H]2O)[C@H](O[C@@H]2OC[C@@H](O)[C@H](O)[C@H]2O)[C@@H](O)[C@H]1O [PROSAPOGENIN 1] | > 10 µg/mL
CC(=O)N[C@H]1[C@H](O[C@H]2CC[C@]3(C)[C@H]4CC=C5[C@@H]6CC(C)(C)[C@@H]7C[C@]6(C(=O)O7)[C@H](O)C[C@@]5(C)[C@]4(C)CC[C@H]3C2(C)C)O[C@H](CO[C@@H]2O[C@H](C)[C@H](O)[C@H](O)[C@H]2O[C@@H]2OC[C@@H](O)[C@H](O)[C@H]2O)[C@@H](O)[C@@H]1O [PORSAPOGENIN 7] | > 10 µg/mL
C=C[C@](C)(CC/C=C(\C)C(=O)O[C@H]1C[C@]2(C(=O)O[C@@H]3O[C@H](CO)[C@@H](O)[C@H](O)[C@H]3O[C@@H]3O[C@@H](C)[C@H](O[C@@H]4O[C@@H](CO)[C@H](O)[C@H]4O)[C@@H](O[C@@H]4O[C@H](CO)[C@@H](O)[C@H](O)[C@H]4O)[C@H]3O)[C@H](O)C[C@]3(C)C(=CC[C@@H]4[C@@]5(C)CC[C@H](O[C@@H]6O[C@H](CO[C@@H]7O[C@H](C)[C@H](O)[C@H](O)[C@H]7O[C@@H]7OC[C@@H](O)[C@H](O)[C@H]7O)[C@@H](O)[C@H](O)[C@H]6O[C@@H]6O[C@H](CO)[C@@H](O)[C@H](O)[C@H]6O)C(C)(C)[C@@H]5CC[C@]43C)[C@@H]2CC1(C)C)O[C@@H]1O[C@H](C)[C@@H](O)[C@H](O)[C@H]1O [PORSAPOGENIN 8] | 4500 nM
C=C[C@](C)(CC/C=C(\CO)C(=O)O[C@H]1C[C@]2(C(=O)O[C@@H]3O[C@H](CO)[C@@H](O)[C@H](O)[C@H]3O[C@@H]3O[C@@H](C)[C@H](O[C@@H]4O[C@@H](CO)[C@H](O)[C@H]4O)[C@@H](O[C@@H]4O[C@H](CO)[C@@H](O)[C@H](O)[C@H]4O)[C@H]3O)[C@H](O)C[C@]3(C)C(=CC[C@@H]4[C@@]5(C)CC[C@H](O[C@@H]6O[C@H](CO[C@@H]7O[C@H](C)[C@H](O)[C@H](O)[C@H]7O[C@@H]7OC[C@@H](O)[C@H](O)[C@H]7O)[C@@H](O)[C@H](O)[C@H]6O)C(C)(C)[C@@H]5CC[C@]43C)[C@@H]2CC1(C)C)O[C@@H]1O[C@H](C)[C@@H](O)[C@H](O)[C@H]1O [PROSAPOGENIN 10] | 2000 nM
CC(=O)N[C@H]1[C@H](O[C@H]2CC[C@]3(C)[C@H]4CC=C5[C@@H]6CC(C)(C)[C@@H](O)C[C@]6(C(=O)O)[C@H](O)C[C@@]5(C)[C@]4(C)CC[C@H]3C2(C)C)O[C@H](CO[C@@H]2OC[C@H](O)[C@H](O)[C@H]2O[C@@H]2OC[C@@H](O)[C@H](O)[C@H]2O)[C@@H](O)[C@@H]1O [PROSAPOGENIN 2] | > 10 µg/mL
C[C@H]1O[C@@H](OC[C@H]2O[C@@H](O[C@H]3CC[C@]4(C)[C@H]5CC=C6[C@@H]7CC(C)(C)[C@@H]8C[C@]7(C(=O)O8)[C@H](O)C[C@@]6(C)[C@]5(C)CC[C@H]4C3(C)C)[C@H](O[C@@H]3O[C@H](CO)[C@@H](O)[C@H](O)[C@H]3O)[C@@H](O)[C@@H]2O)[C@H](O[C@@H]2OC[C@@H](O)[C@H](O)[C@H]2O)[C@@H](O)[C@H]1O [PORSAPOGENIN 5] | > 10 µg/mL
C=C[C@](C)(CC/C=C(\C)C(=O)O[C@H]1[C@H](O)[C@@H](O)[C@H](O[C@](C)(C=C)CC/C=C(\C)C(=O)O[C@H]2C[C@]3(C(=O)O[C@@H]4O[C@H](CO)[C@@H](O)[C@H](O)[C@H]4O[C@@H]4O[C@@H](C)[C@H](O[C@@H]5O[C@@H](CO)[C@H](O)[C@H]5O)[C@@H](O[C@@H]5O[C@H](CO)[C@@H](O)[C@H](O)[C@H]5O)[C@H]4O)[C@H](O)C[C@]4(C)C(=CC[C@@H]5[C@@]6(C)CC[C@H](O[C@@H]7O[C@H](CO[C@@H]8O[C@H](C)[C@H](O)[C@H](O)[C@H]8O[C@@H]8OC[C@@H](O)[C@H](O)[C@H]8O)[C@@H](O)[C@H](O)[C@H]7O[C@@H]7O[C@H](CO)[C@@H](O)[C@H](O)[C@H]7O)C(C)(C)[C@@H]6CC[C@]54C)[C@@H]3CC2(C)C)O[C@@H]1C)O[C@@H]1O[C@H](C)[C@@H](O)[C@H](O)[C@H]1O [JULIBROSIDE I] | > 10 µg/mL
C=C[C@](C)(CC/C=C(\C)C(=O)O[C@H]1C[C@]2(C(=O)O[C@@H]3O[C@H](CO)[C@@H](O)[C@H](O)[C@H]3O[C@@H]3O[C@@H](C)[C@H](O[C@@H]4O[C@@H](CO)[C@H](O)[C@H]4O)[C@@H](O[C@@H]4O[C@H](CO)[C@@H](O)[C@H](O)[C@H]4O)[C@H]3O)CC[C@]3(C)C(=CC[C@@H]4[C@@]5(C)CC[C@H](O[C@@H]6O[C@H](CO[C@@H]7O[C@H](C)[C@H](O)[C@H](O)[C@H]7O[C@@H]7OC[C@@H](O)[C@H](O)[C@H]7O)[C@@H](O)[C@H](O)[C@H]6OC6O[C@H](CO)[C@@H](O)[C@H](O)[C@H]6O)C(C)(C)[C@@H]5CC[C@]43C)[C@@H]2CC1(C)C)O[C@@H]1O[C@H](C)[C@@H](O)[C@H](O)[C@H]1O (stereo not given in full) [PROSAPOGENIN 12] | > 10 µg/mL
CC1(C)C[C@H]2C3=CC[C@@H]4[C@@]5(C)CC[C@H](O[C@@H]6O[C@H](CO[C@@H]7OC[C@H](O)[C@H](O)[C@H]7O[C@@H]7OC[C@@H](O)[C@H](O)[C@H]7O)[C@@H](O)[C@H](O)[C@H]6O)C(C)(C)[C@@H]5CC[C@@]4(C)[C@]3(C)C[C@@H](O)[C@@]23C[C@@H]1OC3=O [PROSAPOGENIN 3] | > 10 µg/mL
CC(=O)N[C@H]1[C@H](O[C@H]2CC[C@]3(C)[C@H]4CC=C5[C@@H]6CC(C)(C)[C@@H]7C[C@]6(C(=O)O7)[C@H](O)C[C@@]5(C)[C@]4(C)CC[C@H]3C2(C)C)O[C@H](CO[C@@H]2OC[C@H](O)[C@H](O)[C@H]2O[C@@H]2OC[C@@H](O)[C@H](O)[C@H]2O)[C@@H](O)[C@@H]1O [PROSAPOGENIN 4] | > 10 µg/mL
C[C@H]1O[C@@H](OC[C@H]2O[C@@H](O[C@H]3CC[C@]4(C)[C@H]5CC=C6[C@@H]7CC(C)(C)[C@@H]8C[C@]7(C(=O)O8)[C@H](O)C[C@@]6(C)[C@]5(C)CC[C@H]4C3(C)C)[C@H](O)[C@@H](O)[C@@H]2O)[C@H](O[C@@H]2OC[C@@H](O)[C@H](O)[C@H]2O)[C@@H](O)[C@H]1O [PORSAPOGENIN 6] | > 10 µg/mL
C=C[C@](C)(CC/C=C(\C)C(=O)O[C@H]1[C@H](O)[C@@H](O)[C@H](O[C@](C)(C=C)CC/C=C(\C)C(=O)O[C@H]2C[C@]3(C(=O)O[C@@H]4O[C@H](CO)[C@@H](O)[C@H](O)[C@H]4O[C@@H]4O[C@@H](C)[C@H](O[C@@H]5O[C@@H](CO)[C@H](O)[C@H]5O)[C@@H](O[C@@H]5O[C@H](CO)[C@@H](O)[C@H](O)[C@H]5O)[C@H]4O)[C@H](O)C[C@]4(C)C(=CC[C@@H]5[C@@]6(C)CC[C@H](O[C@@H]7O[C@H](CO[C@@H]8O[C@H](C)[C@H](O)[C@H](O)[C@H]8O[C@@H]8OC[C@@H](O)[C@H](O)[C@H]8O)[C@@H](O)[C@H](O)[C@H]7NC(C)=O)C(C)(C)[C@@H]6CC[C@]54C)[C@@H]3CC2(C)C)O[C@@H]1C)O[C@@H]1O[C@H](C)[C@@H](O)[C@H](O)[C@H]1O [JULIBROSIDE III] | 900 nM
